Measured values published in patent publication US20250312469A1 (CANGET BIOTEKPHARMA, priority 2024, published 2025).
Where two headings read alike, the source gives them in different places. Marks after values point to notes of the source that are not given here.

[1] = female dogs, Group 4, 4/4 mg/kg/dose, Day 15
[2] = female dogs, Group 4, 4/4 mg/kg/dose, Day −4
[3] = female dogs, Group 4, 4/4 mg/kg/dose, Day −4 (pre-dose)
[4] = male dogs, Group 4, 4/4 mg/kg/dose, Day 15
[5] = male dogs, Group 4, 4/4 mg/kg/dose, Day −4

CCC1(O)C(=O)OCc2c1cc1n(c2=O)Cc2cc3cc4c(cc3nc2-1)OCO4 (centres unmarked) [FL118]
RET count percentage, max decrease, male (Day 15 vs controls): 30.65% | leukocyte (WBC) counts, max decrease, male (Day 15 vs controls): 14.33% | neutrophils counts (#NEUT), max decrease, male (Day 15 vs controls): 18.67% | reticulocyte (RET) count absolute, max decrease, male (Day 15 vs controls): 33.4% | clinical signs (all treatment groups): abnormal stool | Cl (chloride), % Diff versus vehicle Group 1 (female dogs, Group 2, 2.5/[…], Day 15): 0% | Cl (chloride), % Diff versus vehicle Group 1 (female dogs, Group 2, 2.5/[…], Day −4 (pre-dose)): 0% | Cl (chloride), % Diff versus vehicle Group 1 (female dogs, Group 3, 3.3/[…], Day 15): −1% | Cl (chloride), % Diff versus vehicle Group 1 (female dogs, Group 3, 3.3/[…], Day −4 (pre-dose)): −1% | #EOS (eosinophils, absolute) % Diff vs Group 1 [1]: 6.45% | #LYMP (lymphocytes, absolute) % Diff vs Group 1 [1]: −12.61% | #NEUT % Diff [1]: 32.40% | #RET % Diff [1]: 61.4% | #RET Mean [1]: 60.5 10^9/L | % BASO (basophils, percent) % Diff vs Group 1 [1]: −46.7% | % BASO, basophils, percent, Mean [1]: 0.3% | % EOS (eosinophils, percent) % Diff vs Group 1 [1]: −5.6% | % EOS, eosinophils, percent, Mean [1]: 2.2% | % LYMP (lymphocytes, percent) % Diff vs Group 1 [1]: −21.4% | % LYMP, lymphocytes, percent, Mean [1]: 27.8% | % MONO (monocytes, percent) % Diff vs Group 1 [1]: −18.3% | % MONO, monocytes, percent, Mean [1]: 5.5% | % NEUT % Diff [1]: 17.0% | % NEUT Mean [1]: 63.9% | % RET % Diff [1]: 47.72% | ALB (albumin), % Diff versus vehicle Group 1 [1]: −1.6% | ALP (alkaline phosphatase), % Diff versus vehicle Group 1 [1]: −19% | ALP, alkaline phosphatase, Mean [1]: 110 U/L | ALT (alanine aminotransferase), % Diff versus vehicle Group 1 [1]: 24% | ALT, alanine aminotransferase, Mean [1]: 36 U/L | AST (aspartate aminotransferase), % Diff versus vehicle Group 1 [1]: −7% | AST, aspartate aminotransferase, Mean [1]: 29 U/L | BIL-T, total bilirubin, Mean [1]: 1.60 µmol/L | CK (creatine kinase), % Diff versus vehicle Group 1 [1]: −32% | CK, creatine kinase, Mean [1]: 200 U/L | CRE (creatinine), % Diff versus vehicle Group 1 [1]: 12% | CRE, creatinine, Mean [1]: 54 µmol/L | Ca, calcium, Mean [1]: 2.53 mmol/L | Cl (chloride), % Diff versus vehicle Group 1 [1]: 1% | GGT (gamma-glutamyltransferase), % Diff versus vehicle Group 1 [1]: 0% | GGT (gamma-glutamyltransferase), Mean [1]: 3 U/L | HCT % Diff [1]: 9.2% | HCT Mean [1]: 43.8% | HGB % Diff [1]: 9.5% | HGB Mean [1]: 14.8 g/dL | K (potassium), % Diff versus vehicle Group 1 [1]: −8.3% | MCH Mean [1]: 23.6 pg | MCHC % Diff [1]: −0.1% | MCHC Mean [1]: 33.9 g/dL | MCV % Diff [1]: −1.6% | MCV Mean [1]: 69.6 fL | MPV (mean platelet volume) % Diff vs Group 1 [1]: −6.3% | MPV, mean platelet volume, Mean [1]: 12.3 fL | P (inorganic phosphorus), % Diff versus vehicle Group 1 [1]: −11.74% | PLT (platelet count) % Diff vs Group 1 [1]: −12% | RBC % Diff [1]: 11.06% | RDW % Diff [1]: −2.9% | RDW Mean [1]: 12.5% | TCHO (total cholesterol), % Diff versus vehicle Group 1 [1]: −6.71% | TCHO, total cholesterol, Mean [1]: 3.52 mmol/L | TG (triglyceride), % Diff versus vehicle Group 1 [1]: −27.70% | TP (total protein), % Diff versus vehicle Group 1 [1]: 3.5% | TP, total protein, Mean [1]: 57.5 g/L | UREA (urea), % Diff versus vehicle Group 1 [1]: −3.71% | WBC % Diff [1]: 12.58% | sGLU (glucose), % Diff versus vehicle Group 1 [1]: 7.41% | sGLU, glucose, Mean [1]: 4.59 mmol/L | TG, triglyceride, Mean (female dogs, Group 4, 4/4 mg/kg/dose, Day 15, * p ≤ 0.05): 0.36* mmol/L | #BASO (basophils, absolute) % Diff vs Group 1 [2]: 0.00% | #EOS (eosinophils, absolute) % Diff vs Group 1 [2]: 18.46% | #LYMP (lymphocytes, absolute) % Diff vs Group 1 [2]: −9.70% | #MONO (monocytes, absolute) % Diff vs Group 1 [2]: 6.36% | #NEUT % Diff [2]: 45.57% | #RET % Diff [2]: −2.5% | % BASO (basophils, percent) % Diff vs Group 1 [2]: −25.0% | % BASO, basophils, percent, Mean [2]: 0.2% | % EOS (eosinophils, percent) % Diff vs Group 1 [2]: 4.5% | % EOS, eosinophils, percent, Mean [2]: 2.3% | % LYMP (lymphocytes, percent) % Diff vs Group 1 [2]: −25.5% | % LYMP, lymphocytes, percent, Mean [2]: 24.4% | % MONO (monocytes, percent) % Diff vs Group 1 [2]: −14.4% | % MONO, monocytes, percent, Mean [2]: 6.9% | % NEUT % Diff [2]: 17.0% | % RET Mean [2]: 0.71% | HCT % Diff [2]: 5.4% | HCT Mean [2]: 44.9% | HGB % Diff [2]: 7.3% | HGB Mean [2]: 15.1 g/dL | MCH Mean [2]: 23.4 pg | MCHC % Diff [2]: 1.8% | MCHC Mean [2]: 35.7 g/dL | MCV % Diff [2]: −1.8% | MPV, mean platelet volume, Mean [2]: 11.1 fL | PLT (platelet count) % Diff vs Group 1 [2]: −10% | RDW Mean [2]: 13.1% | WBC % Diff [2]: 23.46% | ALB (albumin), % Diff versus vehicle Group 1 [3]: 1.8% | ALP (alkaline phosphatase), % Diff versus vehicle Group 1 [3]: −19% | ALP, alkaline phosphatase, Mean [3]: 129 U/L | ALT (alanine aminotransferase), % Diff versus vehicle Group 1 [3]: −8% | ALT, alanine aminotransferase, Mean [3]: 25 U/L | AST (aspartate aminotransferase), % Diff versus vehicle Group 1 [3]: −11% | AST, aspartate aminotransferase, Mean [3]: 31 U/L | BIL-T (total bilirubin), % Diff versus vehicle Group 1 [3]: 23.23% | CK (creatine kinase), % Diff versus vehicle Group 1 [3]: −39% | CK, creatine kinase, Mean [3]: 233 U/L | CRE (creatinine), % Diff versus vehicle Group 1 [3]: 11% | CRE, creatinine, Mean [3]: 52 µmol/L | Ca (calcium), % Diff versus vehicle Group 1 [3]: −2.36% | Cl (chloride), % Diff versus vehicle Group 1 [3]: 2% | GGT (gamma-glutamyltransferase), % Diff versus vehicle Group 1 [3]: 0% | GGT (gamma-glutamyltransferase), Mean [3]: 3 U/L | GLB, globulin, Mean [3]: 27.3 g/L | K, potassium, Mean [3]: 4.3 mmol/L | Na (sodium), % Diff versus vehicle Group 1 [3]: 1% | Na, sodium, Mean [3]: 147 mmol/L | P (inorganic phosphorus), % Diff versus vehicle Group 1 [3]: −6.41% | P, inorganic phosphorus, Mean [3]: 1.61 mmol/L | TCHO (total cholesterol), % Diff versus vehicle Group 1 [3]: −6.71% | TCHO, total cholesterol, Mean [3]: 3.66 mmol/L | TG (triglyceride), % Diff versus vehicle Group 1 [3]: −11.26% | TG, triglyceride, Mean [3]: 0.45 mmol/L | TP, total protein, Mean [3]: 57.4 g/L | UREA, urea, Mean [3]: 4.17 mmol/L | sGLU (glucose), % Diff versus vehicle Group 1 [3]: −0.07% | NOAEL (for males): 4.4 mg/kg/dose | Cl (chloride) % Diff vs Group 1 (male dogs, Group 2, 2.5/[…], Day 15): 3% | Cl (chloride) % Diff vs Group 1 (male dogs, Group 2, 2.5/[…], Day −4): 2% | Cl (chloride) % Diff vs Group 1 (male dogs, Group 3, 3.3/[…], Day 15): 2% | Cl (chloride) % Diff vs Group 1 (male dogs, Group 3, 3.3/[…], Day −4): −1% | ALP (alkaline phosphatase) % Diff vs Group 1 [4]: −31% | ALT (alanine aminotransferase) % Diff vs Group 1 [4]: 4% | ALT, alanine aminotransferase, Mean [4]: 29 L⁻¹ | AST (aspartate aminotransferase) % Diff vs Group 1 [4]: −31% | BIL-T (total bilirubin (diasys)) % Diff vs Group 1 [4]: 31.07% | BIL-T (total bilirubin (diasys)) Mean [4]: 1.48 L⁻¹ | CK (creatine kinase) % Diff vs Group 1 [4]: −10% | CK, creatine kinase, Mean [4]: 281 U/L | GGT (gamma-glutamyltransferase), Mean [4]: 3 U/L | GLB, globulin, Mean [4]: 28.3* g/L | K (potassium) % Diff vs Group 1 [4]: −10.3% | K, potassium, Mean [4]: 4.4 mmol/L | Na (sodium) % Diff vs Group 1 [4]: 2% | Na, sodium, Mean [4]: 148 mmol/L | P, inorganic phosphorus, Mean [4]: 1.63 L⁻¹ | TCHO, total cholesterol, Mean [4]: 4.77 mmol/L | TG (triglyceride) % Diff vs Group 1 [4]: −15.79% | UREA (urea) % Diff vs Group 1 [4]: 2.96% | sGLU (glucose) % Diff vs Group 1 [4]: −6.55% | sGLU, glucose, Mean [4]: 4.47 L⁻¹ | ALB, albumin, Mean [5]: 11.0 g/L | ALP (alkaline phosphatase) % Diff vs Group 1 [5]: −5% | ALP, alkaline phosphatase, Mean [5]: 141 L⁻¹ | ALT (alanine aminotransferase) % Diff vs Group 1 [5]: 3% | ALT, alanine aminotransferase, Mean [5]: 25 L⁻¹ | AST (aspartate aminotransferase) % Diff vs Group 1 [5]: −3% | AST, aspartate aminotransferase, Mean [5]: 32 L⁻¹ | BIL-T (total bilirubin (diasys)) Mean [5]: 1.67 L⁻¹ | CK (creatine kinase) % Diff vs Group 1 [5]: 15% | CRE (creatinine) % Diff vs Group 1 [5]: 8% | Cl (chloride) % Diff vs Group 1 [5]: 1% | K (potassium) % Diff vs Group 1 [5]: −2.8% | K, potassium, Mean [5]: 4.7 mmol/L | Na (sodium) % Diff vs Group 1 [5]: 0% | Na, sodium, Mean [5]: 146 mmol/L | P, inorganic phosphorus, Mean [5]: 1.52 L⁻¹ | TCHO (total cholesterol) % Diff vs Group 1 [5]: −2.15% | TCHO, total cholesterol, Mean [5]: 4.85 mmol/L | TG (triglyceride) % Diff vs Group 1 [5]: −8.33% | TG, triglyceride, Mean [5]: 0.40 mmol/L | UREA, urea, Mean [5]: 4.25 L⁻¹ | sGLU, glucose, Mean [5]: 4.11 L⁻¹ | Total Bilirubin (BIL-T), max increase, females (vs control group): 16.14% | Total Bilirubin (BIL-T), max increase, males (vs control group): 47.34% | Triglyceride (TG), max decrease, females (vs control group): 37.84% | Triglyceride (TG), max decrease, males (vs control group): 22.56%
